According to PubChem BioAssay (NCI):
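Each compound was tested at five concentrations against cells in 96-well plates for 48 hours. GI50 = concentration required for 50% inhibition of growth. Definition used: TGI = concentration required for complete inhibition of growth.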

Legend:
Test in all cases: NCI-60 cell line screen, 48 h
SF-295 CNS = system: SF-295 CNS
SK-MEL-28 melanoma = system: SK-MEL-28 melanoma
HS 578T breast = system: HS 578T breast
SN12C renal = system: SN12C renal
NCI-H460 lung = system: NCI-H460 lung
SF-539 CNS = system: SF-539 CNS
CAKI-1 renal = system: CAKI-1 renal
SW-620 colon = system: SW-620 colon
NCI-H226 lung = system: NCI-H226 lung
NCI/ADR-RES ovarian = system: NCI/ADR-RES ovarian
K-562 leukemia = system: K-562 leukemia
OVCAR-3 ovarian = system: OVCAR-3 ovarian
HOP-92 NSCLC = system: HOP-92 NSCLC
ACHN renal = system: ACHN renal
MDA-MB-435 = system: MDA-MB-435
TK-10 renal = system: TK-10 renal
PC-3 prostate = system: PC-3 prostate
SF-268 CNS = system: SF-268 CNS
OVCAR-5 ovarian = system: OVCAR-5 ovarian
EKVX NSCLC = system: EKVX NSCLC
UACC-62 melanoma = system: UACC-62 melanoma
CCRF-CEM leukemia = system: CCRF-CEM leukemia
HOP-62 NSCLC = system: HOP-62 NSCLC
A498 renal = system: A498 renal
UACC-257 melanoma = system: UACC-257 melanoma
NCI-H23 lung = system: NCI-H23 lung
SNB-75 CNS = system: SNB-75 CNS
T-47D breast = system: T-47D breast

Which results are given for `O=C(N/N=C/c1ccc(B(O)O)o1)c1[nH]c2ccc(Br)cc2c1-c1ccccc1`?
GI50 (SF-295 CNS): 13.1 µM; TGI (SF-295 CNS): 43.1 µM; GI50 (SK-MEL-28 melanoma): 10.7 µM; TGI (SK-MEL-28 melanoma): > 100 µM; GI50 (HS 578T breast): 8.91 µM; TGI (HS 578T breast): 93.6 µM; GI50 (SN12C renal): 24.4 µM; TGI (SN12C renal): > 100 µM; GI50 (NCI-H460 lung): 29.1 µM; TGI (NCI-H460 lung): > 100 µM; GI50 (SF-539 CNS): 13 µM; TGI (SF-539 CNS): 31.3 µM; GI50 (CAKI-1 renal): 30.8 µM; TGI (CAKI-1 renal): > 100 µM; GI50 (SW-620 colon): 35.7 µM; TGI (SW-620 colon): > 100 µM; GI50 (NCI-H226 lung): 45.8 µM; TGI (NCI-H226 lung): > 100 µM; GI50 (NCI/ADR-RES ovarian): 12.2 µM; TGI (NCI/ADR-RES ovarian): 56.2 µM; GI50 (K-562 leukemia): 5.46 µM; TGI (K-562 leukemia): 45 µM; GI50 (OVCAR-3 ovarian): 14.8 µM; TGI (OVCAR-3 ovarian): > 100 µM; GI50 (HOP-92 NSCLC): 11.7 µM; TGI (HOP-92 NSCLC): 52.8 µM; GI50 (ACHN renal): 29.6 µM; TGI (ACHN renal): > 100 µM; GI50 (MDA-MB-435): 3.66 µM; TGI (MDA-MB-435): > 100 µM; GI50 (TK-10 renal): 37.1 µM; TGI (TK-10 renal): > 100 µM; GI50 (PC-3 prostate): 12.9 µM; TGI (PC-3 prostate): > 100 µM; GI50 (SF-268 CNS): 16.1 µM; TGI (SF-268 CNS): > 100 µM; GI50 (OVCAR-5 ovarian): 27.5 µM; TGI (OVCAR-5 ovarian): > 100 µM; GI50 (EKVX NSCLC): 28.6 µM; TGI (EKVX NSCLC): > 100 µM; GI50 (UACC-62 melanoma): 3.24 µM; TGI (UACC-62 melanoma): 15.5 µM; GI50 (CCRF-CEM leukemia): 17.5 µM; TGI (CCRF-CEM leukemia): 55.4 µM; GI50 (HOP-62 NSCLC): 11.9 µM; TGI (HOP-62 NSCLC): 36.6 µM; GI50 (A498 renal): 23.3 µM; TGI (A498 renal): > 100 µM; GI50 (UACC-257 melanoma): 19.1 µM; TGI (UACC-257 melanoma): > 100 µM; GI50 (NCI-H23 lung): 26.5 µM; TGI (NCI-H23 lung): > 100 µM; GI50 (SNB-75 CNS): 3.26 µM; TGI (SNB-75 CNS): 20.6 µM; GI50 (T-47D breast): 21.4 µM; TGI (T-47D breast): > 100 µM
